Experimental data reported in patent EP4793271A1, “NEUROPROTECTIVE AGENT” (National Center of Neurology and Psychiatry, priority 2023, dated 2025).

Key:
[1] = In vitro analysis of metabolite production with a UV (254 nm) chromatogram
hSARM1 = target: T1, hSARM1 (Homo sapiens, UniProt Q6SZW1); test: SARM1 inhibitory activity using recombinant SARM1 (PC6 base exchange fluorescence); format: biochemical; parameters: purchased BPS Bioscience; conditions: recombinant human SARM1 2 ng/µL; NMN 10 µM; NAD 1 mM; PC6 50 µM; result in words
T1 sequence (Q6SZW1 28-724): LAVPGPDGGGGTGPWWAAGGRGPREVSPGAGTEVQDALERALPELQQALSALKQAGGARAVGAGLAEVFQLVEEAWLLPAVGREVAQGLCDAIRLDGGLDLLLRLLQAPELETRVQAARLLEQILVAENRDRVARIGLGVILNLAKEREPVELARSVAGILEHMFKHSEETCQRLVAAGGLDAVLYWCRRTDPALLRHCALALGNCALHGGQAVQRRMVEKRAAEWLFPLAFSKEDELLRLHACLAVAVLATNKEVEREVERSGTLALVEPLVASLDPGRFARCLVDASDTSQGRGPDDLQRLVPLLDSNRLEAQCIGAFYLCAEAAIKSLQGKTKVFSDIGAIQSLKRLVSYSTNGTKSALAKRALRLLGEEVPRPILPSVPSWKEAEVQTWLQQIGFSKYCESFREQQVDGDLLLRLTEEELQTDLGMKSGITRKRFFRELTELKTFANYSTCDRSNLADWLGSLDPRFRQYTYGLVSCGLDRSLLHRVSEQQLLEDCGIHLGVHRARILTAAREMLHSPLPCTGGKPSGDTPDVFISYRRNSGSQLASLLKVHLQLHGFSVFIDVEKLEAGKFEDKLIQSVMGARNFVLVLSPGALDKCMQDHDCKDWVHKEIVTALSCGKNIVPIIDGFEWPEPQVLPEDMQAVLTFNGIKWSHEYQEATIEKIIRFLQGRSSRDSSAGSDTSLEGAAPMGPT
Method: The SARM1 inhibitory activity was evaluated by the following method using recombinant SARM1 from BPS Bioscience.
NMN, an endogenous activator for SARM1, was added at a final concentration of 10 µM to a reaction solution (composition: 40 mM HEPES-KOH (pH 7.4), 0.1% polyvinyl alcohol, and 110 mM potassium acetate) using a 96-well black plate. Subsequently, serial dilutions of the test compound and recombinant human SARM1 (final concentration: 2 ng/µL) were added thereto and preincubated at room temperature for 5 to 10 minutes. NAD and PC6 were added as substrates at final concentrations of 1 mM and 50 µM, respectively, to each well and incubated at room temperature for 1 hour, followed by fluorescent signal measurement using SpectraMax M2 (Molecular Devices) (excitation: 390 nm, fluorescence: 520 nm, fluorescence cutoff: 515 nm) (Li et al, eLife 2021 10: e67381). The fluorescent signal was normalized by using fluorescence intensity measured from a control group without addition of recombinant human SARM1 as a background whereas using fluorescence intensity measured from a control group supplemented with recombinant human SARM1 as the negative control, and plotted as the function of the test compound concentrations, and the compound was evaluated for its SARM1 inhibitory activity by calculating IC50.

[2] = mouse, in vivo
Method: Compound 35 was intravenously (iv: 1 mg/5 ml/kg) administered at a single dose to C57BL/6J male mice (about 10 weeks old (non-fasted), n = 3), and blood was collected 5, 15, and 30 minutes, and 1, 2, 4, 8, and 24 hours later. Likewise, compound 35 was orally (po: 10 mg/10 ml/kg) administered at a single dose to C57BL/6J male mice (about 10 weeks old (non-fasted), n = 3), and blood was collected 15 and 30 minutes, and 1, 2, 4, 8, and 24 hours later. Urine was collected from each mouse up to 24 hours after administration (pooled urine).

| SMILES | production of metabolites [1] | SARM1 inhibitory activity (hSARM1) | metabolites detected in the plasma [2] |
| --- | --- | --- | --- |
| O=C(NCc1ccc(NC(=O)c2ccccc2)nc1)c1ccc[n+]([C@@H]2O[C@H](CO)[C@@H](O)[C@H]2O)c1 [compound 105-riboside form] | confirmed | exhibited stronger activity in this order |  |
| O=C(NCc1ccc(NC(=O)c2ccccc2)nc1)c1ccc[n+]([C@@H]2O[C@H](COP(=O)([O-])O)[C@@H](O)[C@H]2O)c1 [compound 105-NMN-like metabolite] |  | exhibited stronger activity in this order |  |
| CC(C)(C)C(=O)Nc1ccc(CNC(=O)c2ccc[n+]([C@@H]3O[C@H](COP(=O)([O-])O)[C@@H](O)[C@H]3O)c2)cn1 [compound 76-NMN-like metabolite] |  | stronger activity than that of compound 76 | detected, albeit at a much lower concentration than that of compound 76 |
| CC(C)(C)C(=O)Nc1ccc(CNC(=O)c2ccc[n+]([C@@H]3O[C@H](COP(=O)(O)OP(=O)([O-])OC[C@H]4O[C@@H](n5cnc6c(N)ncnc65)[C@H](O)[C@@H]4O)[C@@H](O)[C@H]3O)c2)cn1 [compound 76-NAD-like metabolite] |  | stronger activity than that of compound 76 |  |
| O=C(NCCCOCCOCCCNC(=O)c1ccc[n+]([C@@H]2O[C@H](COP(=O)([O-])O)[C@@H](O)[C@H]2O)c1)c1cccnc1 [compound 35-NMN-like metabolite] |  | stronger activity than that of compound 35 |  |
